± gives the expanded uncertainty stated by the source.
Tests used:
[1] = xn = mol fraction of the nth substance listed; settings: 100 kPa, Liquid, Vibrating tube method, x2 = 0.9938
[2] = Liquid; for mass density: 100 kPa, Vibrating tube method; for speed of sound: 101.33 kPa, Single path-length method

mass density ([2]; 283.15 K) | speed of sound ([2]; 283.15 K) | mass density ([2]; 288.15 K) | speed of sound ([2]; 288.15 K) | mass density ([2]; 293.15 K) | speed of sound ([2]; 293.15 K) | mass density ([2]; 298.15 K) | speed of sound ([2]; 298.15 K) | mass density ([2]; 303.15 K) | speed of sound ([2]; 303.15 K) | SMILES | mass density ([1]; 283.15 K) | mass density ([1]; 288.15 K) | mass density ([1]; 293.15 K) | mass density ([1]; 298.15 K) | mass density ([1]; 303.15 K)
– | – | – | – | – | – | – | – | – | – | CCCCOCCCN [3-butoxy-1-propanamine] + O | 996.79 ± 1 kg/m3 | 995.99 ± 1 kg/m3 | 994.84 ± 1 kg/m3 | 993.43 ± 0.99 kg/m3 | 991.89 ± 0.99 kg/m3
1059.63 ± 1.4 kg/m3 | 1658.7 ± 2.4 m/s | 1056.47 ± 1.4 kg/m3 | 1647.2 ± 2.4 m/s | 1053.3 ± 1.4 kg/m3 | 1635.9 ± 2.4 m/s | 1050.14 ± 1.4 kg/m3 | 1624.6 ± 2.4 m/s | 1046.99 ± 1.4 kg/m3 | 1613.3 ± 2.4 m/s | OCCCO [propan-1,3-diol] | – | – | – | – | –

From the NIST ThermoML archive (doi:10.1016/j.jct.2018.08.033)
